Measured values taken from patent publication US20100267561A1, “HERBICIDAL PYRIDAZINONE DERIVATIVES” (priority 2007, published 2010).

Legend:
Assay in all cases: Test B pre-/postemergence plant response
Type in all cases: in vivo
[1] = system: bermudagrass (Cynodon dactylon)
Outline: (§1)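 Seeds were sown and sprayed preemergence, while plants at 2 to 18 cm (1- to 4-leaf stage) got postemergence sprays. Compounds were formulated in a non-phytotoxic solvent mixture with surfactant. After 13 to 15 days in a greenhouse, injury was rated visually against untreated controls, 0 (no effect) to 100 (complete control).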

[2] = system: blackgrass (Alopecurus myosuroides)
Outline: as §1

[3] = system: catchweed bedstraw (Galium aparine); conditions: Preemergence
Outline: as §1

[4] = system: common (oilseed) sunflower (Helianthus annuus); conditions: Preemergence
Outline: as §1

corn (Zea mays) = system: corn (Zea mays)
Outline: as §1

[5] = system: downy bromegrass (Bromus tectorum)
Outline: as §1

[6] = system: giant foxtail (Setaria faberii)
Outline: as §1

[7] = system: green foxtail (Setaria viridis)
Outline: as §1

[8] = system: lambsquarters (Chenopodium album)
Outline: as §1

[9] = system: large crabgrass (Digitaria sanguinalis)
Outline: as §1

[10] = system: morningglory (Ipomoea coccinea)
Outline: as §1

[11] = system: velvetleaf (Abutilon theophrasti)
Outline: as §1

[12] = system: wheat (Triticum aestivum)
Outline: as §1

wild oat (Avena fatua) = system: wild oat (Avena fatua)
Outline: as §1

[13] = 8 g ai/ha, postemergence, 0-100 scale
[14] = Postemergence, 16 g ai/ha, scale 0 to 100
[15] = Postemergence, 31 g ai/ha, scale 0 to 100
[16] = Postemergence, 62 g ai/ha, scale 0 to 100, 0 no effect, 100 complete control
[17] = Preemergence, 8 g ai/ha, scale 0 to 100 (0 no effect, 100 complete control)
[18] = Preemergence, 16 g ai/ha, scale 0 to 100 (0 no effect, 100 complete control)
[19] = Preemergence, 31 g ai/ha, scale 0 to 100 (0 no effect, 100 complete control)
[20] = Preemergence, 62 g ai/ha, 0 to 100 scale, 0 no effect, 100 complete control
[21] = Preemergence, 16 g ai/ha, scale 0 to 100
[22] = 8 g ai/ha, scale 0 to 100 (0 no effect, 100 complete control)
[23] = 31 g ai/ha, scale 0 to 100 (0 no effect, 100 complete control)
[24] = 62 g ai/ha, 0 to 100 scale, 0 no effect, 100 complete control
[25] = 16 g ai/ha, postemergence, 0-100 scale
[26] = Preemergence, 8 g ai/ha, scale 0 to 100

Cc1nn(C)c(=O)c(-n2nc(-c3ccc(Br)cc3)cc2C)c1O [Compound 81]
Bermudagrass plant response rating [1, 13]: 40 | Plant response rating, Bermudagrass [1, 14]: 95 | Plant response rating, Bermudagrass [1, 15]: 100 | Plant response rating, Bermudagrass [1, 16]: 100 | Bermudagrass plant response rating [1, 17]: 0 | Bermudagrass plant response rating [1, 18]: 50 | Plant response rating, Bermudagrass [1, 19]: 100 | Plant response rating, Bermudagrass [1, 20]: 100 | Blackgrass plant response rating [2, 13]: 85 | Plant response rating, Blackgrass [2, 14]: 90 | Plant response rating, Blackgrass [2, 15]: 98 | Plant response rating, Blackgrass [2, 16]: 100 | Blackgrass plant response rating [2, 17]: 80 | Plant response rating, Blackgrass [2, 19]: 100 | Plant response rating, Blackgrass [2, 20]: 100 | Blackgrass plant response rating [2, 21]: 85 | Galium plant response rating [3, 22]: 0 | Plant response rating, Galium [3, 23]: 0 | Plant response rating, Galium [3, 24]: 0 | Galium plant response rating ([3]; 16 g ai/ha, scale 0 to 100): 0 | Sunflower plant response rating [4, 22]: 0 | Plant response rating, Sunflower [4, 23]: 15 | Plant response rating, Sunflower [4, 24]: 20 | Sunflower plant response rating ([4]; 16 g ai/ha, scale 0 to 100): 0 | Corn plant response rating (corn (Zea mays); [13]): 45 | Plant response rating, Corn (corn (Zea mays); [14]): 100 | Plant response rating, Corn (corn (Zea mays); [15]): 100 | Plant response rating, Corn (corn (Zea mays); [16]): 100 | Corn plant response rating (corn (Zea mays); [17]): 65 | Plant response rating, Corn (corn (Zea mays); [19]): 98 | Plant response rating, Corn (corn (Zea mays); [20]): 100 | Corn plant response rating (corn (Zea mays); [21]): 70 | Bromegrass, Downy plant response rating [5, 13]: 0 | Plant response rating, Bromegrass, Downy [5, 14]: 45 | Plant response rating, Bromegrass, Downy [5, 15]: 50 | Plant response rating, Bromegrass, Downy [5, 16]: 70 | Bromegrass, Downy plant response rating [5, 17]: 20 | Plant response rating, Bromegrass, Downy [5, 19]: 70 | Plant response rating, Bromegrass, Downy [5, 20]: 85 | Bromegrass, Downy plant response rating [5, 21]: 70 | Foxtail, Giant plant response rating [6, 13]: 80 | Plant response rating, Foxtail, Giant [6, 14]: 85 | Plant response rating, Foxtail, Giant [6, 15]: 98 | Plant response rating, Foxtail, Giant [6, 16]: 100 | Foxtail, Giant plant response rating [6, 17]: 80 | Plant response rating, Foxtail, Giant [6, 19]: 100 | Plant response rating, Foxtail, Giant [6, 20]: 100 | Foxtail, Giant plant response rating [6, 21]: 100 | Foxtail, Green plant response rating [7, 13]: 85 | Plant response rating, Foxtail, Green [7, 14]: 90 | Plant response rating, Foxtail, Green [7, 15]: 95 | Plant response rating, Foxtail, Green [7, 16]: 98 | Foxtail, Green plant response rating [7, 17]: 40 | Plant response rating, Foxtail, Green [7, 19]: 100 | Plant response rating, Foxtail, Green [7, 20]: 100 | Foxtail, Green plant response rating [7, 21]: 80 | Lambsquarters plant response rating [8, 13]: 0 | Lambsquarters plant response rating [8, 25]: 0 | Plant response rating, Lambsquarters [8, 15]: 0 | Plant response rating, Lambsquarters [8, 16]: 0 | Lambsquarters plant response rating [8, 17]: 0 | Plant response rating, Lambsquarters [8, 19]: 0 | Plant response rating, Lambsquarters [8, 20]: 0 | Lambsquarters plant response rating [8, 21]: 0 | Crabgrass, Large plant response rating [9, 13]: 50 | Plant response rating, Crabgrass, Large [9, 14]: 98 | Plant response rating, Crabgrass, Large [9, 15]: 100 | Plant response rating, Crabgrass, Large [9, 16]: 100 | Crabgrass, Large plant response rating [9, 17]: 65 | Plant response rating, Crabgrass, Large [9, 19]: 100 | Plant response rating, Crabgrass, Large [9, 20]: 100 | Crabgrass, Large plant response rating [9, 21]: 98 | Morningglory plant response rating [10, 13]: 0 | Morningglory plant response rating [10, 25]: 0 | Plant response rating, Morningglory [10, 15]: 0 | Plant response rating, Morningglory [10, 16]: 0 | Morningglory plant response rating [10, 17]: 0 | Plant response rating, Morningglory [10, 19]: 0 | Plant response rating, Morningglory [10, 20]: 100 | Morningglory plant response rating [10, 21]: 0 | Velvetleaf plant response rating [11, 13]: 0 | Velvetleaf plant response rating [11, 25]: 0 | Plant response rating, Velvetleaf [11, 15]: 0 | Plant response rating, Velvetleaf [11, 16]: 0 | Velvetleaf plant response rating [11, 17]: 0 | Plant response rating, Velvetleaf [11, 19]: 0 | Plant response rating, Velvetleaf [11, 20]: 0 | Velvetleaf plant response rating [11, 21]: 0 | Wheat plant response rating [12, 13]: 30 | Wheat plant response rating [12, 25]: 55 | Plant response rating, Wheat [12, 15]: 95 | Plant response rating, Wheat [12, 16]: 100 | Wheat plant response rating [12, 17]: 0 | Plant response rating, Wheat [12, 19]: 50 | Plant response rating, Wheat [12, 20]: 85 | Wheat plant response rating [12, 21]: 5 | Oat, Wild plant response rating (wild oat (Avena fatua); [13]): 80 | Oat, Wild plant response rating (wild oat (Avena fatua); [25]): 95 | Plant response rating, Oat, Wild (wild oat (Avena fatua); [15]): 100 | Plant response rating, Oat, Wild (wild oat (Avena fatua); [16]): 100 | Oat, Wild plant response rating (wild oat (Avena fatua); [17]): 45 | Plant response rating, Oat, Wild (wild oat (Avena fatua); [19]): 70 | Plant response rating, Oat, Wild (wild oat (Avena fatua); [20]): 85 | Oat, Wild plant response rating (wild oat (Avena fatua); [21]): 60

Cc1cc(-c2ccc(Cl)cc2)nn1-c1c(OC(=S)N(C)C)cnn(C)c1=O [Compound 69]
Bermudagrass plant response rating [1, 13]: 20 | Plant response rating, Bermudagrass [1, 14]: 65 | Plant response rating, Bermudagrass [1, 15]: 95 | Plant response rating, Bermudagrass [1, 16]: 98 | Bermudagrass plant response rating [1, 17]: 0 | Plant response rating, Bermudagrass [1, 18]: 0 | Plant response rating, Bermudagrass [1, 19]: 0 | Plant response rating, Bermudagrass [1, 20]: 0 | Blackgrass plant response rating [2, 13]: 10 | Plant response rating, Blackgrass [2, 14]: 35 | Plant response rating, Blackgrass [2, 15]: 35 | Plant response rating, Blackgrass [2, 16]: 90 | Plant response rating, Blackgrass [2, 18]: 0 | Plant response rating, Blackgrass [2, 19]: 40 | Plant response rating, Blackgrass [2, 20]: 70 | Blackgrass plant response rating [2, 26]: 0 | Plant response rating, Galium [3, 23]: 0 | Plant response rating, Galium [3, 24]: 0 | Galium plant response rating ([3]; 8 g ai/ha, scale 0 to 100): 0 | Galium plant response rating ([3]; 16 g ai/ha, scale 0 to 100): 0 | Plant response rating, Sunflower [4, 23]: 0 | Plant response rating, Sunflower [4, 24]: 0 | Sunflower plant response rating ([4]; 8 g ai/ha, scale 0 to 100): 0 | Sunflower plant response rating ([4]; 16 g ai/ha, scale 0 to 100): 0 | Corn plant response rating (corn (Zea mays); [13]): 0 | Plant response rating, Corn (corn (Zea mays); [14]): 0 | Plant response rating, Corn (corn (Zea mays); [15]): 0 | Plant response rating, Corn (corn (Zea mays); [16]): 20 | Plant response rating, Corn (corn (Zea mays); [19]): 0 | Plant response rating, Corn (corn (Zea mays); [20]): 0 | Corn plant response rating (corn (Zea mays); [26]): 0 | Corn plant response rating (corn (Zea mays); [21]): 0 | Bromegrass, Downy plant response rating [5, 13]: 0 | Plant response rating, Bromegrass, Downy [5, 14]: 0 | Plant response rating, Bromegrass, Downy [5, 15]: 15 | Plant response rating, Bromegrass, Downy [5, 16]: 45 | Plant response rating, Bromegrass, Downy [5, 18]: 0 | Plant response rating, Bromegrass, Downy [5, 19]: 0 | Plant response rating, Bromegrass, Downy [5, 20]: 0 | Bromegrass, Downy plant response rating [5, 26]: 0 | Foxtail, Giant plant response rating [6, 13]: 60 | Plant response rating, Foxtail, Giant [6, 14]: 85 | Plant response rating, Foxtail, Giant [6, 15]: 100 | Plant response rating, Foxtail, Giant [6, 16]: 100 | Plant response rating, Foxtail, Giant [6, 19]: 0 | Plant response rating, Foxtail, Giant [6, 20]: 0 | Foxtail, Giant plant response rating [6, 26]: 0 | Foxtail, Giant plant response rating [6, 21]: 0 | Foxtail, Green plant response rating [7, 13]: 60 | Plant response rating, Foxtail, Green [7, 14]: 80 | Plant response rating, Foxtail, Green [7, 15]: 90 | Plant response rating, Foxtail, Green [7, 16]: 95 | Plant response rating, Foxtail, Green [7, 19]: 40 | Plant response rating, Foxtail, Green [7, 20]: 100 | Foxtail, Green plant response rating [7, 26]: 0 | Foxtail, Green plant response rating [7, 21]: 0 | Lambsquarters plant response rating [8, 13]: 0 | Lambsquarters plant response rating [8, 25]: 0 | Plant response rating, Lambsquarters [8, 15]: 0 | Plant response rating, Lambsquarters [8, 16]: 0 | Crabgrass, Large plant response rating [9, 13]: 55 | Plant response rating, Crabgrass, Large [9, 14]: 75 | Plant response rating, Crabgrass, Large [9, 15]: 98 | Plant response rating, Crabgrass, Large [9, 16]: 100 | Plant response rating, Crabgrass, Large [9, 19]: 0 | Plant response rating, Crabgrass, Large [9, 20]: 0 | Crabgrass, Large plant response rating [9, 26]: 0 | Crabgrass, Large plant response rating [9, 21]: 0 | Morningglory plant response rating [10, 13]: 0 | Morningglory plant response rating [10, 25]: 0 | Plant response rating, Morningglory [10, 15]: 0 | Plant response rating, Morningglory [10, 16]: 0 | Plant response rating, Morningglory [10, 19]: 0 | Plant response rating, Morningglory [10, 20]: 0 | Morningglory plant response rating [10, 26]: 0 | Morningglory plant response rating [10, 21]: 0 | Velvetleaf plant response rating [11, 13]: 0 | Velvetleaf plant response rating [11, 25]: 0 | Plant response rating, Velvetleaf [11, 15]: 0 | Plant response rating, Velvetleaf [11, 16]: 0 | Plant response rating, Velvetleaf [11, 19]: 0 | Plant response rating, Velvetleaf [11, 20]: 0 | Velvetleaf plant response rating [11, 26]: 0 | Velvetleaf plant response rating [11, 21]: 0 | Wheat plant response rating [12, 13]: 0 | Wheat plant response rating [12, 25]: 35 | Plant response rating, Wheat [12, 15]: 40 | Plant response rating, Wheat [12, 16]: 80 | Plant response rating, Wheat [12, 19]: 0 | Plant response rating, Wheat [12, 20]: 0 | Wheat plant response rating [12, 21]: 0 | Oat, Wild plant response rating (wild oat (Avena fatua); [13]): 20 | Oat, Wild plant response rating (wild oat (Avena fatua); [25]): 40 | Plant response rating, Oat, Wild (wild oat (Avena fatua); [15]): 90 | Plant response rating, Oat, Wild (wild oat (Avena fatua); [16]): 90 | Plant response rating, Oat, Wild (wild oat (Avena fatua); [19]): 20 | Plant response rating, Oat, Wild (wild oat (Avena fatua); [20]): 40 | Oat, Wild plant response rating (wild oat (Avena fatua); [26]): 0 | Oat, Wild plant response rating (wild oat (Avena fatua); [21]): 0
